Reference: the CheMixHub viscosity set

Experiment: xn = mol fraction of the nth substance listed

CCNc1ccccc1 + CCC(=O)O
308.15 K, 101.33 kPa
Conditions | viscosity [mPa·s]
x2 = 0.1567 | 1.706
x2 = 0.2906 | 1.897
x2 = 0.4142 | 2.167
x2 = 0.5224 | 2.302
x2 = 0.6217 | 2.533
x2 = 0.7121 | 2.575
x2 = 0.7933 | 2.379
x2 = 0.8787 | 1.916
x2 = 0.9032 | 1.691
x2 = 0.9363 | 1.412
x2 = 0.9694 | 1.113

CCNc1ccccc1 + CCC(=O)c1ccccc1
303.15 K, 100 kPa
Conditions | viscosity [mPa·s]
x1 = 0.0789 | 1.524
x1 = 0.1541 | 1.537
x1 = 0.2249 | 1.55
x1 = 0.3002 | 1.565
x1 = 0.3862 | 1.581
x1 = 0.4651 | 1.598
x1 = 0.5244 | 1.612
x1 = 0.6049 | 1.631
x1 = 0.6891 | 1.653
x1 = 0.7354 | 1.666
x1 = 0.8005 | 1.683
x1 = 0.8523 | 1.699
x1 = 0.9099 | 1.716

CC(=O)O + CCC(C)=O
viscosity [mPa·s], 101 kPa
Conditions | x1 = 0.1006 | x1 = 0.2003 | x1 = 0.3011 | x1 = 0.4019 | x1 = 0.5031 | x1 = 0.6006 | x1 = 0.7023 | x1 = 0.7985 | x1 = 0.8986
298.15 K | 0.4312 | 0.4737 | 0.5266 | 0.5832 | 0.6507 | 0.7259 | 0.8152 | 0.9085 | 1.013
308.15 K | 0.3905 | 0.4255 | 0.4697 | 0.5173 | 0.573 | 0.6346 | 0.7132 | 0.7902 | 0.879
318.15 K | 0.3521 | 0.3832 | 0.4196 | 0.4601 | 0.5058 | 0.559 | 0.6203 | 0.6845 | 0.7622

CCC(C)Br (configuration not stated) + CCC(C)O
viscosity [mPa·s], 101.3 kPa
Conditions | x1 = 0.0514 | x1 = 0.1041 | x1 = 0.2027 | x1 = 0.2985 | x1 = 0.4321 | x1 = 0.5027 | x1 = 0.5839 | x1 = 0.702 | x1 = 0.8019 | x1 = 0.9029
298.15 K | 2.434 | 1.986 | 1.435 | 1.135 | 0.8991 | 0.8084 | 0.7285 | 0.6459 | 0.5996 | 0.5667
313.15 K | 1.495 | 1.276 | 1.006 | 0.8366 | 0.6849 | 0.6292 | 0.5794 | 0.5282 | 0.4961 | 0.4774

CCNc1ccccc1 + CCC(C)O
viscosity [mPa·s], 101 kPa
Conditions | 303.15 K | 308.15 K
x1 = 0.0785 | 2.682 | 2.105
x1 = 0.1325 | 2.642 | 2.089
x1 = 0.1965 | 2.596 | 2.071
x1 = 0.2564 | 2.55 | 2.052
x1 = 0.3214 | 2.498 | 2.028
x1 = 0.3965 | 2.433 | 1.995
x1 = 0.4562 | 2.378 | 1.964
x1 = 0.5124 | 2.322 | 1.932
x1 = 0.5895 | 2.24 | 1.882
x1 = 0.6547 | 2.164 | 1.835
x1 = 0.7325 | 2.07 | 1.773
x1 = 0.8025 | 1.983 | 1.714
x1 = 0.8745 | 1.894 | 1.653

CCOC=O + CCC(C)O
viscosity [mPa·s], 100 kPa
Conditions | x1 = 0.0818 | x1 = 0.1617 | x1 = 0.2415 | x1 = 0.3497 | x1 = 0.4398 | x1 = 0.5611 | x1 = 0.65 | x1 = 0.7399 | x1 = 0.85 | x1 = 0.9396
293.15 K | 2.41 | 1.74 | 1.35 | 1.04 | 0.86 | 0.69 | 0.59 | 0.53 | 0.48 | 0.44
298.15 K | 2.03 | 1.51 | 1.2 | 0.94 | 0.78 | 0.62 | 0.55 | 0.5 | 0.45 | 0.42
303.15 K | 1.74 | 1.32 | 1.07 | 0.84 | 0.71 | 0.58 | 0.51 | 0.47 | 0.43 | 0.4
308.15 K | 1.5 | 1.17 | 0.96 | 0.77 | 0.66 | 0.55 | 0.49 | 0.45 | 0.41 | 0.38
313.15 K | 1.3 | 1.02 | 0.85 | 0.71 | 0.61 | 0.51 | 0.46 | 0.42 | 0.39 | 0.36
318.15 K | 1.13 | 0.9 | 0.77 | 0.65 | 0.57 | 0.48 | 0.43 | 0.39 | 0.36 | 0.34
323.15 K | 1 | 0.82 | 0.72 | 0.61 | 0.55 | 0.47 | 0.42 | 0.38 | 0.35 | 0.32

CCOC=O + CCCC(C)O
viscosity [mPa·s], 100 kPa
Conditions | x1 = 0.0826 | x1 = 0.1603 | x1 = 0.2396 | x1 = 0.3504 | x1 = 0.4402 | x1 = 0.5595 | x1 = 0.6497 | x1 = 0.74 | x1 = 0.8501 | x1 = 0.9381
293.15 K | 2.84 | 2.16 | 1.73 | 1.34 | 1.12 | 0.91 | 0.78 | 0.65 | 0.52 | 0.45
298.15 K | 2.5 | 1.96 | 1.57 | 1.23 | 1.02 | 0.85 | 0.73 | 0.6 | 0.49 | 0.43
303.15 K | 2.2 | 1.74 | 1.4 | 1.11 | 0.93 | 0.77 | 0.67 | 0.57 | 0.46 | 0.41
308.15 K | 1.9 | 1.53 | 1.23 | 0.98 | 0.84 | 0.7 | 0.6 | 0.52 | 0.43 | 0.39
313.15 K | 1.6 | 1.3 | 1.05 | 0.86 | 0.75 | 0.63 | 0.54 | 0.46 | 0.4 | 0.36
318.15 K | 1.32 | 1.06 | 0.89 | 0.73 | 0.64 | 0.54 | 0.47 | 0.41 | 0.36 | 0.33
323.15 K | 1.06 | 0.84 | 0.7 | 0.59 | 0.53 | 0.45 | 0.4 | 0.36 | 0.33 | 0.31

ClCCl + CCCCC
298.15 K, 101 kPa
Conditions | viscosity [mPa·s]
x2 = 0.05 | 0.403
x2 = 0.1 | 0.384
x2 = 0.1023 | 0.379
x2 = 0.15 | 0.366
x2 = 0.1992 | 0.345
x2 = 0.2 | 0.348
x2 = 0.25 | 0.332
x2 = 0.3 | 0.317
x2 = 0.3043 | 0.314
x2 = 0.35 | 0.303
x2 = 0.4 | 0.29
x2 = 0.4032 | 0.29
x2 = 0.45 | 0.28
x2 = 0.5 | 0.27
x2 = 0.5097 | 0.269
x2 = 0.55 | 0.262
x2 = 0.6 | 0.255
x2 = 0.603 | 0.254
x2 = 0.65 | 0.248
x2 = 0.6984 | 0.242
x2 = 0.7 | 0.242
x2 = 0.75 | 0.237
x2 = 0.7991 | 0.231
x2 = 0.8 | 0.232
x2 = 0.85 | 0.227
x2 = 0.8858 | 0.224
x2 = 0.9 | 0.222
x2 = 0.9189 | 0.221
x2 = 0.95 | 0.218

ClCCl + CCCCCC
298 K, 101 kPa
Conditions | viscosity [mPa·s]
x2 = 0.1331 | 0.386
x2 = 0.2381 | 0.367
x2 = 0.3208 | 0.354
x2 = 0.3873 | 0.346
x2 = 0.4407 | 0.34
x2 = 0.4419 | 0.34
x2 = 0.4746 | 0.335
x2 = 0.4862 | 0.335
x2 = 0.5144 | 0.333
x2 = 0.5244 | 0.332
x2 = 0.5599 | 0.329
x2 = 0.6138 | 0.324
x2 = 0.6791 | 0.32
x2 = 0.7601 | 0.314
x2 = 0.8633 | 0.308

C[Si]1(C)O[Si](C)(C)O[Si](C)(C)O[Si](C)(C)O1 + CCCCCCCCCC
viscosity [mPa·s], 103 kPa
Conditions | 298.15 K | 308.15 K | 318.15 K
x1 = 0.05 | 0.844 | 0.733 | 0.645
x1 = 0.1 | 0.867 | 0.753 | 0.664
x1 = 0.1501 | 0.899 | 0.778 | 0.683
x1 = 0.2 | 0.931 | 0.801 | 0.703
x1 = 0.25 | 0.965 | 0.831 | 0.725
x1 = 0.3 | 1.007 | 0.865 | 0.753
x1 = 0.35 | 1.047 | 0.895 | 0.778
x1 = 0.3999 | 1.086 | 0.93 | 0.802
x1 = 0.45 | 1.134 | 0.964 | 0.833
x1 = 0.5 | 1.183 | 1.006 | 0.867
x1 = 0.5501 | 1.232 | 1.048 | 0.909
x1 = 0.6 | 1.292 | 1.097 | 0.943
x1 = 0.65 | 1.358 | 1.15 | 0.987
x1 = 0.6999 | 1.431 | 1.209 | 1.035
x1 = 0.75 | 1.511 | 1.273 | 1.087
x1 = 0.8 | 1.6 | 1.345 | 1.145
x1 = 0.85 | 1.699 | 1.423 | 1.208
x1 = 0.9 | 1.811 | 1.511 | 1.278
x1 = 0.95 | 1.936 | 1.61 | 1.356

C[Si]1(C)O[Si](C)(C)O[Si](C)(C)O[Si](C)(C)O1 + CCCCCCCCCCCC
viscosity [mPa·s], 103 kPa
Conditions | 298.15 K | 308.15 K | 318.15 K
x1 = 0.05 | 1.314 | 1.107 | 0.951
x1 = 0.1 | 1.32 | 1.113 | 0.962
x1 = 0.15 | 1.342 | 1.132 | 0.972
x1 = 0.2 | 1.352 | 1.141 | 0.982
x1 = 0.25 | 1.366 | 1.153 | 0.991
x1 = 0.3 | 1.384 | 1.167 | 1
x1 = 0.35 | 1.402 | 1.183 | 1.012
x1 = 0.3999 | 1.431 | 1.202 | 1.028
x1 = 0.45 | 1.454 | 1.225 | 1.048
x1 = 0.5 | 1.489 | 1.251 | 1.068
x1 = 0.5501 | 1.517 | 1.278 | 1.089
x1 = 0.6 | 1.554 | 1.309 | 1.114
x1 = 0.65 | 1.6 | 1.345 | 1.142
x1 = 0.6999 | 1.643 | 1.38 | 1.173
x1 = 0.75 | 1.7 | 1.426 | 1.209
x1 = 0.7999 | 1.759 | 1.473 | 1.248
x1 = 0.85 | 1.828 | 1.523 | 1.292
x1 = 0.9 | 1.91 | 1.588 | 1.343
x1 = 0.95 | 1.985 | 1.652 | 1.39

C[Si]1(C)O[Si](C)(C)O[Si](C)(C)O[Si](C)(C)O1 + CCCCCCCCCCCCC
viscosity [mPa·s], 103 kPa
Conditions | 298.15 K | 308.15 K | 318.15 K
x1 = 0.05 | 1.619 | 1.351 | 1.145
x1 = 0.1 | 1.61 | 1.343 | 1.139
x1 = 0.15 | 1.604 | 1.339 | 1.137
x1 = 0.2 | 1.602 | 1.338 | 1.134
x1 = 0.2501 | 1.604 | 1.346 | 1.136
x1 = 0.3 | 1.608 | 1.342 | 1.139
x1 = 0.35 | 1.614 | 1.345 | 1.143
x1 = 0.4 | 1.62 | 1.355 | 1.149
x1 = 0.45 | 1.636 | 1.366 | 1.159
x1 = 0.5 | 1.649 | 1.375 | 1.167
x1 = 0.55 | 1.667 | 1.389 | 1.177
x1 = 0.6 | 1.69 | 1.406 | 1.191
x1 = 0.65 | 1.715 | 1.43 | 1.209
x1 = 0.7 | 1.751 | 1.458 | 1.24
x1 = 0.75 | 1.794 | 1.498 | 1.269
x1 = 0.8 | 1.826 | 1.53 | 1.293
x1 = 0.85 | 1.89 | 1.572 | 1.328
x1 = 0.9 | 1.941 | 1.62 | 1.365
x1 = 0.95 | 1.996 | 1.659 | 1.405
